{"source": "patent US11186603B2", "about": "“Heparan sulfate glycomimetic compounds and their pharmaceutical and cosmeceutical uses” (VICTORIA LINK LIMITED, priority 2017, dated 2021)", "key": {"[1]": {"tested_on": "GM03123 (NPC) fibroblast cell line", "experiment": "NPC cholesterol activity: filipin staining, LSO ratio", "assay_type": "cell-based, human", "conditions": "for LSO %: GM03123 (NPC), 48 hours", "description": "(§1) Fibroblast cell lines derived from Alzheimer and Niemann-Pick Type C (NPC) patients and healthy controls were obtained from the […] (Camden, N.J., USA). Cell line GM03123 was derived from a NPC patient with two heterozygous mutations in the NPC1 gene. Cell line GM09503 was used as a healthy control for the NPC cell line. Cell line ND41001 was derived from a patient carrying a Presenilin 1 mutation with familial (early onset) Alzheimer's disease (AD). Cell line ND38530 was used as a healthy control for the AD cell line. Further details of the cell lines are available at the Cornell Cell Repository website (https://catalog.coriell.org/).\n(§2) Cell culture work was carried out in sterile conditions in an Email Air Handling Class II Biological Safety Cabinet (AES Environmental Pty LTD, Australia). All cell lines were cultured in DMEM (10313-021, Life Technologies New Zealand) supplemented with 10% fetal calf serum (Thermo Fisher Scientific New Zealand), 1× GlutaMAX™ Supplement (stabilised L-glutamine, Gibco Life Technologies New Zealand), 100 units/mL penicillin and 100 units/mL streptomycin (Life Technologies New Zealand). Cell lines were maintained in or 75 cm^2 flasks (Corning, Invitro Technologies New Zealand) in a humidified incubator (Sanyo Electric Co. Ltd, Japan) at 37° C. and 5% CO2. Experimental cultures were carried out in the same media omitting the antibiotics to avoid any potential interaction with the compound being tested.\n(§3) For experiments, cells were seeded at a density of 1.25×10^3 cells/mL in black, 96 well plates (Cell-carrier, Perkin Elmer, Scimed New Zealand) in a volume of 100 μL media and grown for 24 hours before treating. The media was then replaced with fresh media supplemented with the required treatment. Cell lines GM03123 and ND41001 were either left untreated, or treated with either 10 μM or 100 μM of the heparan sulphate compound dissolved in sterile deionised water (dH20), 10 μM suberoylanilide hydroxamic acid (SAHA) dissolved in DMSO, or 0.1% DMSO. The healthy control cell lines GM09503 and ND38530 were left untreated or treated with U18666A dissolved in sterile dH20 at a final concentration of 1 μg/mL. U18666A causes cholesterol accumulation in the cell and is therefore a positive control for the filipin stain. Cells were then grown for 48 hours.\n(§4) Before fixing, cells were washed three times with 1× phosphate buffered saline (PBS). From this point all treatments and washes were undertaken on a rotating table at 45 revs per minute. Cells were fixed with 1.5% paraformaldehyde (PFA) in 1×PBS (Thermo Fisher Scientific New Zealand) for 20 minutes. Cells were then washed with 1×PBS for four minutes. This was repeated twice. The cells were then stained for 2 hours with 50 μg/mL Filipin dye (Filipin complex from Streptomyces filipinensis, Sigma Aldrich, Australia) protected from the light. With minimal light exposure, the cells were washed with 1×PBS for four minutes and this was repeated twice. Cells were left in 1×PBS for confocal microscopy. The filipin stained cells were imaged using a Perkin Elmer Opera™ high-throughput spinning disk confocal microscope using 405 nm laser and 20× water immersion objective. Perkin Elmer Acapella™ software was used for image analysis. In NPC cells cholesterol accumulates in organelles with the characteristics of late endosomes or early lysosomes. These can be described as lysosome-like storage organelles (LSO). Analysis of free cholesterol levels in the cells was carried out using a method designed for high throughput confocal images described by Pipalia et al., Automated microscopy screening for compounds that partially revert cholesterol accumulation in Niemann-Pick C cells, J. Lipid Res., 2006, 47(2): 284-301. A low fluorescence threshold was chosen which identified the total area occupied by cells and another higher threshold was chosen to determine the areas of bright filipin staining of cholesterol within the cell. […]"}, "[2]": {"tested_on": "ND41001 (AD) fibroblast cell line", "experiment": "NPC cholesterol activity: filipin staining, LSO ratio", "assay_type": "cell-based, human", "conditions": "48 hours", "description": "as §1, §2, §3, §4"}}, "data": [{"smiles": "O=C(CCCCCCCNC(=O)CCOCC(COCCC(=O)NCCCCCCCC(=O)NCCOCCOCCOCCC(=O)NCCCCCCOC1OC(COS(=O)(=O)[O-])C(OC2OC(COS(=O)(=O)[O-])C(OS(=O)(=O)[O-])C(OS(=O)(=O)[O-])C2OS(=O)(=O)[O-])C(OS(=O)(=O)[O-])C1OS(=O)(=O)[O-])(COCCC(=O)NCCCCCCCC(=O)NCCOCCOCCOCCC(=O)NCCCCCCOC1OC(COS(=O)(=O)[O-])C(OC2OC(COS(=O)(=O)[O-])C(OS(=O)(=O)[O-])C(OS(=O)(=O)[O-])C2OS(=O)(=O)[O-])C(OS(=O)(=O)[O-])C1OS(=O)(=O)[O-])COCCC(=O)NCCCCCCCC(=O)NCCOCCOCCOCCC(=O)NCCCCCCOC1OC(COS(=O)(=O)[O-])C(OC2OC(COS(=O)(=O)[O-])C(OS(=O)(=O)[O-])C(OS(=O)(=O)[O-])C2OS(=O)(=O)[O-])C(OS(=O)(=O)[O-])C1OS(=O)(=O)[O-])NCCOCCOCCOCCC(=O)NCCCCCCOC1OC(COS(=O)(=O)[O-])C(OC2OC(COS(=O)(=O)[O-])C(OS(=O)(=O)[O-])C(OS(=O)(=O)[O-])C2OS(=O)(=O)[O-])C(OS(=O)(=O)[O-])C1OS(=O)(=O)[O-].[Na+].[Na+].[Na+].[Na+].[Na+].[Na+].[Na+].[Na+].[Na+].[Na+].[Na+].[Na+].[Na+].[Na+].[Na+].[Na+].[Na+].[Na+].[Na+].[Na+].[Na+].[Na+].[Na+].[Na+].[Na+].[Na+].[Na+].[Na+]", "note": "(centres unmarked) [Compound 25a]", "values": [{"measurement": "LSO %", "setting": "[1]; 10 μM, LSO ratio treated/untreated x 100", "value": 76.1, "unit": "%"}, {"measurement": "LSO %", "setting": "[1]; 100 μM", "value": 64.2, "unit": "%"}, {"measurement": "effect on filipin (cholesterol) fluorescence (in words)", "setting": "[1]; fibroblast cells derived from Niemann-Pick type C and Alzheimer's disease patients", "value": "positive effect on filipin (cholesterol) fluorescence"}, {"measurement": "LSO %", "setting": "[2]; 10 μM", "value": 60.1, "unit": "%"}, {"measurement": "LSO %", "setting": "[2]; 100 μM", "value": 67.9, "unit": "%"}]}]}
